Experimental data from publication PMC12621189, “Optimization of Selective and CNS Penetrant Alkyne-Based TREK Inhibitors: The Discovery and Characterization of ONO-9517601 (VU6022856) and ONO-7927846 (VU6024391)” (Journal of Medicinal Chemistry, 2025).

Columns and labels:
[1] = set-up: method as in earlier work; conditions: ref 24 (Tanaka et al., ACS Med. Chem. Lett. 2025); cited from earlier work
[2] = set-up: method as in earlier work; conditions: ref 24 (Tanaka et al., ACS Med. Chem. Lett. 2025); cited from earlier work; remark: listed apart in the source
[3] = test system: MK-801 challenged mouse; set-up: method as in earlier work; conditions: IP, ref 24 (Tanaka et al., ACS Med. Chem. Lett. 2025); cited from earlier work
[4] = set-up: method as in earlier work; conditions: ref 24 (Tanaka et al., ACS Med. Chem. Lett. 2025); cited from earlier work; remark: listed apart in the source
[5] = set-up: method as in earlier work; conditions: ref 24 (Tanaka et al., ACS Med. Chem. Lett. 2025); cited from earlier work; remark: listed apart in the source
[6] = Liver microsome intrinsic clearance, mouse; assay type: in vitro ADME; conditions: mouse liver microsomes, predicted intrinsic clearance; read-out: LMS CLINT mouse
[7] = Liver microsome intrinsic clearance, human; assay type: in vitro ADME; conditions: pH 7.4; human liver microsomes, predicted intrinsic clearance; read-out: LMS CLINT human
Protocol: (§1) were incubated in 100 mM potassium phosphate pH 7.4 buffer with 3 mM MgCl2 at 37 °C with constant shaking. After a 5 min preincubation, the reaction was initiated by the addition of NADPH (1 mM). At selected time intervals (0, 3, 7, 15, 25, and 45 min), aliquots were taken and subsequently placed into a 96-well plate containing cold acetonitrile with internal standard (50 ng/mL carbamazepine). Plates were then centrifuged at 3000 rcf (4 °C) for 10 min, and the supernatant was transferred to a separate 96-well plate and diluted 1:1 with water for LC/MS/MS analysis. The in vitro half-life ( 1/2, min, Eq. 1), intrinsic clearance (CLint, mL/min/kg, Eq. 2), and subsequent predicted hepatic clearance (CLhep, mL/min/kg, Eq. 3) was determined employing the […]
(§2) where k represents the slope from linear regression analysis of the natural log percent remaining of a test compound as a function of incubation time […]
(§3) (2) CLint = in vitroT x mg microsomes x gram liver x kg body wt ascale-up factors: of 20 (human) or 45 (rat) […]
(§4) where Qh (hepatic blood flow, mL/min/kg) is 21 (human) or 70 (rat).
(§5) LC/MS/MS Bioanalysis of Samples from Plasma Protein Binding and Intrinsic Clearance […]
(§6) Samples were analyzed on a Thermo Electron TSQ Quantum Ultra triple quad mass spectrometer (San Jose, CA) via electrospray ionization (ESI) with two Themo Electron Accella pumps (San Jose, CA), and a Leap Technologies CTC PAL autosampler (Carrboro, NC). Analytes were […]

[8] = Plasma protein binding, human (equilibrium dialysis); assay type: in vitro ADME; conditions: pH 7.4, read-out: PPB human (converted)
Protocol: (§7) Plasma protein binding and Brain homogenate binding: Determination of fraction unbound (f u) in plasma was conducted in vitro via equilibrium dialysis using HTDialysis (HTD) membrane plates. The top half of the plate was filled with 100 uL of Dubelco’s Phosphate Buffered Saline, pH 7.4 (DPBS). Compounds were diluted into plasma from each species (5 µM final concentration), which was aliquoted in triplicate to the ‘bottom half’ of the prepared HTD plate wells. The HTD plate was sealed and incubated for 6 hours at 37 °C. Following incubation, each well (both top and bottom halves) were transferred (20 µL) to the corresponding wells of a 96-shallow-well (V-bottom) plate. The daughter plates were then matrix-matched (DPBS side wells received equal volume of plasma, and plasma side wells received equal volume of DPBS), and extraction solution (120 µL; acetonitrile containing 50 nM carbamazepine as IS) was added to all wells of both daughter plates to precipitate protein and extract test article. The plates were then sealed and centrifuged (3500 rcf) for 10 minutes at ambient temperature. Supernatant (60 µL) from each well of the daughter plates was then transferred to the corresponding wells of new daughter plates (96-shallow-well, V bottom) containing water (Milli-Q, 60 µL/well), and the plates were sealed in preparation for LC-MS/MS analysis (see LC-MS/MS analysis method below).
(§8) The unbound fraction (f u) was calculated following the equation below, and mean values for each species were calculated from 3 replicates. […]
(§9) Fraction unbound for both plasma and brain samples was determined using Equation 4.
(§10) Equation 4 Determination of fraction unbound in plasma. […]

[9] = Liver microsome intrinsic clearance, rat; assay type: in vitro ADME; conditions: pH 7.4; rat liver microsomes, predicted intrinsic clearance; read-out: LMS CLINT rat
Protocol: as §1, §2, §3, §4, §5, §6

[10] = Plasma protein binding, mouse; assay type: in vitro ADME; conditions: mouse, plasma, pH 7.4, mouse plasma, bound; read-out: PPB mouse (converted)
Protocol: as §7, §8, §9, §10

[11] = Plasma protein binding, rat; assay type: in vitro ADME; conditions: rat, plasma, pH 7.4, rat plasma, bound; read-out: PPB rat (converted)
Protocol: as §7, §8, §9, §10

[12] = Rat in vivo PK (plasma clearance) in SAR tables; conditions: read-out: Rat CLp
[13] = biological target: T1, human TREK-1 (hTREK-1) (Homo sapiens, UniProt O95069); experiment: TREK-1 thallium flux assay (CHO-K1 cells stably expressing hTREK-1); assay type: cell-based; conditions: human TREK-1, thallium flux; read-out: h TREK-1 Tl+ IC50
T1 construct: expressed in transfected cells
T1 sequence (O95069 1-426): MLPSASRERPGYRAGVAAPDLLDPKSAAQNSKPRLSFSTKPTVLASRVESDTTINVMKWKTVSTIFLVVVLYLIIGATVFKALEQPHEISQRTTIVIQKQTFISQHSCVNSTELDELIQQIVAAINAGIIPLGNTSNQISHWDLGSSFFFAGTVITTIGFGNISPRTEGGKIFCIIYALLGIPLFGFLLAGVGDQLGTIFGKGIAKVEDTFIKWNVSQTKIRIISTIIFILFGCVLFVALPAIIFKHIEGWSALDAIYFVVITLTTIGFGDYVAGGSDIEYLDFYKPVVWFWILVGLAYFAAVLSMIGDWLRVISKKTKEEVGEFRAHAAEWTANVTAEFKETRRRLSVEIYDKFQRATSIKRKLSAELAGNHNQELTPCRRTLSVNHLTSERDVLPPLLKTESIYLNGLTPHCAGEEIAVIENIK
Protocol: Procedures for Biological Experiments
TREK-1 Thallium flux assay
CHO-K1 cells stably expressing hTREK-1 were cultured in T225 flask. The cells were loaded with FluxOR dye and plated in 384 well plate at the experiment day. Test compounds or control compound (tert-butyl (3-((4-(benzyloxy)-2-methylphenyl)carbamoyl)-4-chlorophenyl)carbamate) or 0.3% DMSO (vehicle control) were added directly to the cell plates and incubated for 10 min, and then treated with thallium stimulus buffer to initiate thallium flux.
To measure the efficacy and potency of test compounds, the change in fluorescence intensity (ΔRatio) and % inhibition were calculated using the following equations:
ΔRatio = (fluorescence intensity at 25 seconds after thallium addition)/(average of fluorescent intensity before thallium addition)
0.3% DMSO - ΔRatio of 10 μM control compound)}x100
% inhibition vs compound concentration were plotted in XLfit and calculated IC50.
CHO-K1 cells stably expressing human TREK-1 (hTREK-1) were cultured in T225 flask.
The cells were loaded with FluxOR dye and plated in 384 well plate at the experiment day. Test compounds or control compound (tert-butyl (3-((4-(benzyloxy)-2-methylphenyl)carbamoyl)-4-chlorophenyl)carbamate) or 0.3% DMSO (vehicle control) which were prepared on separate plates were added to the cell plates and incubated for 10 min, and then the cells with test compounds or […]
chlorophenyl)carbamate) or 0.3% DMSO (vehicle control) were treated with thallium stimulus buffer to initiate thallium flux. To measure the efficacy and potency of test compounds, the change in fluorescence intensity (ΔRatio) and % inhibition were calculated using the following equations: […]

[14] = Rat brain to plasma ratio (Kp, Kp,uu); assay type: in vivo; conditions: male, Sprague Dawley, brain and plasma, intravenous, 0.2 mg/kg; rat brain:plasma
Protocol: Determination of brain to plasma ratio:
All animal study procedures were approved by the Institutional Animal Care and Use Committee and were conducted in accordance with the National Institutes of Health regulations of animal care covered in Principles of Laboratory Animal Care (National Institutes of Health). All rats were fasted overnight prior to testing.
For determination of the brain over plasma ratio (Kp), compounds were formulated in 8% ethanol, 32% PEG400 and 60% DMSO (v/v/v) and administered as a single 0.2 mg/kg IV dose (1 mL/kg) to male, Sprague Dawley rats (n = 1) via injection into a surgically-implanted jugular vein catheter. At 15 min post dosing, blood sample was collected into chilled, K2EDTA anticoagulant-fortified tube and immediately placed on wet ice. The blood sample was then centrifuged (1700 rcf, 5 minutes, 4 °C) to obtain plasma sample. At the same post-administration time point, whole brain sample was obtained by rapid dissection, rinsed with PBS, and immediately frozen in individual tissue collection box (dry ice). All brain and plasma samples were stored at -80 °C until […]
Sample Analysis: Concentrations in plasma and brain homogenates were quantified by liquid chromatography tandem mass spectrometry (LC-MS/MS). Whole brains were homogenized in 3 mL of 70:30 IPA:water in a mini bead beater for 3 min, and centrifuged at 3,500 g for 5 min. 5 uL of the supernatant was diluted in 15 uL of blank plasma for quantification of the analytes. Plasma samples were centrifuged at 3,500 g for 5 min. A standard curve was generated by diluting the analytes DMSO stocks with blank plasma to obtain a final concentration of 10,000 ng/ml followed by a serial dilution down to 0.5 ng/ml. Quality controls were generated by a serial dilution of the 5,000 ng/ml standard curve solution in blank plasma to obtain 3 concentrations of 500, 50, and 5 ng/ml. 20 uL of brain diluted in plasma, plasma, blank plasma, standard curve and QC samples were loaded in a V-bottom 96-well plate. 120 uL of acetonitrile containing 0.05 uM carbamazepine (internal standard) was added to each well and the plate was centrifuged at 3,500 g for 5 min. 60 uL of the supernatant of each well (protein free) was transferred to a new 96-well plate containing 60 uL of water. The plates were sealed for analysis by LC-MS/MS.
Plasma and brain tissue samples originating from in vivo studies were analyzed by electrospray ionization using an AB Sciex Q-TRAP 5500 (Foster City, CA) that was coupled to a Shimadzu LC-20AD pump (Columbia, MD) and a Leap Technologies CTC PAL auto-sampler (Carrboro, NC). Analytes were separated by gradient elution using a C18 column (3 x 50 mm, 3 mm; Fortis Technologies Ltd, Cheshire, UK) that was thermostated at 40 °C. HPLC mobile phase A was 0.1% formic acid in water (pH unadjusted); mobile phase B was 0.1% formic acid in acetonitrile (pH […]
min, with an isocratic hold for 0.5 min, before transitioning to 10% B over 0.05 min. The column was re-equilibrated (1 min) before the next sample injection. The total run time was 2.55 min, and the HPLC flow rate was 0.5 ml/min. The source temperature was set at 500 °C, and mass spectral analyses were performed using a Turbo-Ion spray source in positive ionization mode (5.0-kV spray voltage) and using multiple-reaction monitoring of transitions specific for the analytes. All data were analyzed using AB Sciex Analyst 1.5.1 software.
Brain plasma concentration ratio (Kp) was calculated by dividing brain concentration by plasma concentration for each animal. Unbound brain to unbound plasma concentration ratio (Kp,uu) is calculated using the following formula: Kp,uu = (Brain ng/g x brain fu)/(plasma ng/ml x plasma fu).
In-vitro determination of blood-brain barrier penetration potential
Blood-brain barrier penetration was determined using MDR1-MDCK cell monolayers by Absorption Systems, following their protocol. In short, compounds were incubated at […] final concentration on one side of the cell monolayer for 2 hours. […]

Compound: Cc1cc(C#Cc2ccc(F)cc2)cnc1NC(=O)c1cc(NC(=O)OC(C)(C)C)ccc1Cl [Compound 5]
- aqueous solubility [1]: < 5 µM
- brain homogenate binding mouse [2]: 99.4%
- MED, MK-801 mouse NOR [3]: 10 mg/kg
- brain homogenate binding rat [4]: > 99.9%
- ChromatoLogD [5]: 5.16

Compound: CC(=O)N1CC(F)(Cn2ncc(Cl)c2C(=O)Nc2ncc(C#Cc3ccccc3)cc2C)C1 [Compound 15e, 1-((1-Acetyl-3-fluoroazetidin-3-yl)methyl)-4-chloro-N-(3-methyl-5-(phenylethynyl)pyridin-2-yl)-1H-pyrazole-5-carboxamide]
- CLint scaled [6]: 340 mL/min/kg
- CLint scaled at 1 µM [7]: 16 mL/min/kg
- fraction unbound at 6 h, 5 µM [8]: 0.039
- CLint scaled at 1 µM [9]: 72 mL/min/kg
- fraction unbound at 6 h, 5 µM [10]: 0.022

Compound: CC(=O)N[C@H]1CC[C@@H](n2ncc(Cl)c2C(=O)Nc2ncc(C#Cc3ccccc3)cc2C)CC1 [Compound 15f, 1-(cis-4-Acetamidocyclohexyl)-4-chloro-N-(3-methyl-5-(phenylethynyl)pyridin-2-yl)-1H-pyrazole-5-carboxamide]
- fraction unbound at 6 h, 5 µM [11]: 0.016
- clearance [12]: 27.8 mL/min/kg
- fraction unbound at 6 h, 5 µM [8]: 0.012
- IC50 [13]: 130 nM
- fraction unbound at 6 h, 5 µM [10]: 0.008
- Kp at 15 min [14]: 0.97
